Experiments:
[1] = system: wheat; test: Test B pre/postemergence wheat; format: in vivo, Triticum aestivum
Procedure, shortened: (§1)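 Herbicidal effect was estimated by eye on a ten-point control scale after plants spent twelve to sixteen days in a greenhouse following soil or foliar treatment. Foliar sprays targeted plants at one to four leaves; all doses were formulated in a non-phytotoxic solvent with surfactant.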

[2] = system: duck salad; test: Test B flood test duck salad; format: in vivo, Heteranthera limosa
Procedure, shortened: (§2)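 Each value is a visual injury score relative to controls, with 10 meaning complete control and 0 no effect. Evaluation took place twelve to sixteen days after the 2-leaf-stage plants were treated and kept in the greenhouse.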

[3] = system: bedstraw; test: Test B pre/postemergence bedstraw; format: in vivo, Galium aparine
Procedure, shortened: as §1

[4] = system: rice; test: Test B flood test rice; format: in vivo, Oryza sativa
Procedure, shortened: as §2

[5] = Postemergence, Rate 62 g/ha, scale 0 to 10, 0 is no effect, 10 is complete control
[6] = Postemergence, Rate 250 g/ha, scale 0 to 10, 0 no effect, 10 complete control
[7] = Preemergence, Rate 31 g/ha, visual rating, scale 0 to 10 (0 no effect, 10 complete control)
[8] = Preemergence, Rate 62 g/ha, scale 0 to 10, 0 is no effect, 10 is complete control
[9] = Preemergence, Rate 125 g/ha, scale 0 to 10 (0 no effect, 10 complete control)
[10] = Preemergence, Rate 250 g/ha, scale of 0 to 10 where 0 is no effect and 10 is complete control
[11] = Rate 125 g/ha, Postemergence, scale 0 to 10, 0 no effect, 10 complete control
[12] = Rate 125 g/ha, Postemergence section (flood test species), scale 0 to 10, 0 no effect, 10 complete control
[13] = Rate 500 g/ha, Postemergence section of Table B, 0 to 10 scale (0 no effect, 10 complete control)
[14] = flood test, listed under Postemergence, Rate 250 g/ha, scale 0 to 10, 0 no effect, 10 complete control
[15] = Rate 31 g/ha, Postemergence, scale 0 to 10
[16] = Preemergence, Rate 500 g/ha, scale 0 (no effect) to 10 (complete control)
[17] = Rate 500 g/ha, Postemergence, scale 0 to 10, 0 no effect, 10 complete control
[18] = Rate 500 g/ha, listed under Postemergence (flood test species), scale 0 to 10, 0 no effect, 10 complete control
[19] = Preemergence, Rate 62 g/ha, scale 0 to 10 (0 no effect, 10 complete control)
[20] = Rate 62 g/ha, headed Pre-emergence (flood test species), scale 0 to 10 (0 no effect, 10 complete control)
[21] = Rate 125 g/ha, Pre-emergence, flood test species, scale 0 to 10 where 0 is no effect and 10 is complete control
[22] = Rate 250 g/ha, headed Pre-emergence (flood test species), scale 0 to 10 (0 no effect, 10 complete control)
[23] = Rate 500 g/ha, headed Pre-emergence (flood test species), scale 0 to 10 (0 no effect, 10 complete control)

Row | SMILES | Wheat plant response rating [1, 5] | Wheat plant response rating [1, 6] | Plant response rating, Wheat [1, 9] | Plant response rating, Wheat [1, 10] | Wheat plant response rating [1, 11] | Ducksalad plant response rating [2, 5] | Ducksalad plant response rating [2, 12] | Ducksalad plant response rating [2, 14] | Bedstraw plant response rating [3, 5] | Bedstraw plant response rating [3, 6] | Plant response rating, Bedstraw [3, 9] | Plant response rating, Bedstraw [3, 10] | Bedstraw plant response rating [3, 11] | Rice plant response rating [4, 5] | Rice plant response rating [4, 12] | Rice plant response rating [4, 14] | Wheat plant response rating [1, 16] | Wheat plant response rating [1, 17] | Ducksalad plant response rating [2, 18] | Bedstraw plant response rating [3, 16] | other results
1 | COc1ccccc1-n1c(=O)on(C(=O)N(c2ccc(F)cc2F)C(C)C)c1=O [Compound 31] | 0 | 0 | 0 | 0 | 0 | 0 | 0 | 0 | 0 | 0 | 0 | 0 | 0 | 0 | 0 | 0 |  |  |  |  | Wheat plant response rating [1, 7]: 0; Plant response rating, Wheat [1, 8]: 0; Ducksalad plant response rating [2, 13]: 0; Bedstraw plant response rating [3, 7]: 0; Plant response rating, Bedstraw [3, 8]: 0; Bedstraw plant response rating [3, 15]: 0; Rice plant response rating [4, 13]: 0
2 | COc1ccc(-n2c(=O)on(C(=O)N(c3ccc(F)cc3F)C(C)C)c2=O)c(OC)c1 [Compound 32] | 0 | 0 | 0 | 0 | 0 | 0 | 0 | 0 | 0 | 0 | 0 | 0 | 0 | 0 | 0 | 0 |  |  |  |  | Wheat plant response rating [1, 7]: 0; Plant response rating, Wheat [1, 8]: 0; Ducksalad plant response rating [2, 13]: 2; Bedstraw plant response rating [3, 7]: 0; Plant response rating, Bedstraw [3, 8]: 0; Bedstraw plant response rating [3, 15]: 0; Rice plant response rating [4, 13]: 0
3 | Cc1ccccc1-n1c(=O)on(C(=O)N(c2ccc(F)c(F)c2)C(C)C)c1=O [Compound 48] | 0 | 0 | 0 | 0 | 0 | 0 |  | 0 | 0 | 0 | 0 | 0 | 0 | 0 | 0 | 0 | 0 | 0 | 0 | 0 | Plant response rating, Wheat [1, 8]: 0; Plant response rating, Bedstraw [3, 8]: 0; Rice plant response rating [4, 18]: 0
4 | Cc1cc(C)c(-n2c(=O)on(C(=O)N(c3ccc(Cl)cc3)C(C)C)c2=O)c(C)c1 [Compound 61] | 0 | 0 | 0 | 0 | 0 | 0 | 0 | 0 | 2 | 6 | 0 | 2 | 3 | 0 | 0 | 0 | 0 | 0 | 0 | 2 | Wheat plant response rating [1, 19]: 0; Bedstraw plant response rating [3, 19]: 0; Rice plant response rating [4, 18]: 0
5 | Cc1cccc(C(C)C)c1-n1c(=O)on(C(=O)N(c2ccc(Cl)cc2)C(C)C)c1=O [Compound 64] | 0 | 0 | 0 | 0 | 0 | 0 | 0 | 0 | 0 | 0 | 0 | 0 | 0 | 0 | 0 | 0 | 0 | 0 | 0 |  | Wheat plant response rating [1, 19]: 0; Bedstraw plant response rating [3, 19]: 0; Bedstraw plant response rating [3, 17]: 0; Rice plant response rating [4, 18]: 0
6 | Cc1cccc(C(C)C)c1-n1c(=O)on(C(=O)N(c2ccc(F)cc2)C(C)C)c1=O [Compound 65] | 0 | 0 | 0 | 0 | 0 | 0 | 0 | 0 | 0 | 0 | 0 | 2 | 0 | 0 | 0 | 0 | 0 | 0 | 0 | 3 | Wheat plant response rating [1, 19]: 0; Bedstraw plant response rating [3, 19]: 0; Bedstraw plant response rating [3, 17]: 0; Rice plant response rating [4, 18]: 3
7 | CCN(Cc1ccccc1)C(=O)n1oc(=O)n(-c2c(C)cccc2C)c1=O [Compound 70] | 0 | 0 | 0 | 0 | 0 |  |  |  | 0 | 0 | 0 | 0 | 0 |  |  |  | 0 | 0 |  | 0 | Wheat plant response rating [1, 19]: 0; Ducksalad plant response rating [2, 20]: 0; Ducksalad plant response rating [2, 21]: 0; Ducksalad plant response rating [2, 22]: 0; Plant response rating, Ducksalad [2, 23]: 0; Bedstraw plant response rating [3, 19]: 0; Bedstraw plant response rating [3, 17]: 0; Rice plant response rating [4, 20]: 0; Rice plant response rating [4, 21]: 0; Rice plant response rating [4, 22]: 0; Plant response rating, Rice [4, 23]: 0
8 | CC(C)N(C(=O)n1oc(=O)n(Cc2ccccc2)c1=O)c1ccc(F)cc1F [Compound 79] | 0 | 0 | 0 | 0 | 0 | 0 | 0 | 0 | 3 | 7 | 0 | 0 | 3 | 0 | 0 | 0 | 2 | 0 | 3 | 0 | Wheat plant response rating [1, 19]: 0; Bedstraw plant response rating [3, 19]: 0; Bedstraw plant response rating [3, 17]: 8; Rice plant response rating [4, 18]: 3

From patent US6737383B1, “Herbicidal oxadiazolidines” (priority 1999, dated 2004)
